From patent publication US9359281B2, “Enantiomers of 2-hydroxy derivatives of fatty acids” (UNIVERSITAT DE LES ILLES BALEARS, priority 2011, dated 2016)

Tests used:
SF767 cells = experiment: Levels of SM in cell membranes, SF767; type: cell-based, human
Method: (§1) At the same time, we have studied the anti-tumoral effect on these and other tumoral lines (see Table 2). The cells were treated in vehicle (water with 5% ethanol, control) or with compound 2OHOA for 24 hours in a concentration of 200 μM. The values of the ordinate axis represent the average±ESM (error standard mean for a number of experiments n=3-5) of SM levels (percent of total phospholipids), determined by chromatographic processes (followed by spectroscopy and image analysis), as a percentage of the total number of lipids compared with untreated cells (control). […] In addition to the techniques for measuring enzyme activity and levels of SM described above, other techniques have been tested which lead to very similar results as, gas chromatography, confocal microscopy, fluorescence spectroscopy, etc.
(§2) The levels of SM, cultivated in the absence (control) or presence of 200 μM of [−]2OHOA, in normal cell membranes (MRC-5 and IMR90) were measured, and also in several types of tumoral cells (see Table 2). In all cases, we detected that the membranes of tumoral cells have SM levels of about half or a third of that in normal cells (FIG. 1). […] For example, the spectrophotometry determination of solution fluorescence of the SM levels is a very simple, quick and efficient analysis method (FIG. 1D). […]

1321N1 cells = experiment: Levels of SM in cell membranes, 1321N1; type: cell-based, human
Method: as §1, §2

A549 cells = experiment: Levels of SM in cell membranes, A549; type: cell-based, human
Method: as §1, §2

Jurkat cells = experiment: Levels of SM in cell membranes, Jurkat; type: cell-based, human
Method: as §1, §2

MRC-5 cells = experiment: Levels of SM in cell membranes, MRC-5; type: cell-based, human
Method: as §1, §2

U87 cells [1] = experiment: Cell growth inhibition, U87; type: cell-based, human; set-up: key to Effect (anti-proliferation effect): +: inhibition of cell growth; −: absence of effect; details: for IC50: U87, sodium salt form
Excerpt: (§3) At this respect, concentrations which inhibit growth of tumour cells (IC50) are lower for the enantiomer S ([−]) in all studied tumour lines (Table 5). […] In all of the cases, the molecules employed were in the form of sodium salt.

SH-SY5Y cells = experiment: Cell growth inhibition, SH-SY5Y; type: cell-based, human; set-up: key to Effect (anti-proliferation effect): +: inhibition of cell growth; −: absence of effect; details: for IC50: SH-SY5Y, sodium salt form
Excerpt: as §3

HepG2 cells = experiment: Cell growth inhibition, HepG2; type: cell-based, human; set-up: key to Effect (anti-proliferation effect): +: inhibition of cell growth; −: absence of effect; details: for IC50: HepG2, sodium salt form
Excerpt: as §3

HeLa cells = experiment: Cell growth inhibition, HeLa; type: cell-based, human; set-up: key to Effect (anti-proliferation effect): +: inhibition of cell growth; −: absence of effect; details: for IC50: sodium salt form
Excerpt: as §3

HT29 cells = experiment: Cell growth inhibition, HT29; type: cell-based, human; set-up: key to Effect (anti-proliferation effect): +: inhibition of cell growth; −: absence of effect; details: for IC50: HT29, sodium salt form
Excerpt: as §3

[2] = Toxicity and side effects (symptoms) in treated tumour-bearing mice; type: in vivo; details: for Toxicity: symptoms registered / Toxicity: Behaviour symptoms, percentage of animals / Toxicity: Diarrhoea, percentage of animals: 15 days
Excerpt: This example recounts the study carried out on immuno-depressed mice infected with human glioma (SF767) cells and treated for 15 days (orally) with the indicated dose (Table 3).

[3] = system: hypertense rats (strain SHR); experiment: Systolic arterial pressure in SHR rats; type: in vivo; details: 600 mg/kg every 12 h, 15 days, orally
Method: B. Effects on arterial pressure: hypertense rats (strain SHR) were treated with 2OHOA racemic (+/−) and its optic isomers [−]2OHOA and [+]2OHOA (600 mg/kg every 12 h, 15 days, orally). […] Values of average±EEM systolic pressure (n=6) are shown.
What is more, we studied the effect of the isomers above on arterial pressure, body weight, and the level of cholesterol, triglycerides and glycemia (glucose in plasma) in SHR rats SHR (FIGS. 8B, 8C and 8D and 8E). […] Similarly, during 1 and 5 days of treatment, rats treated with the racemic loosed 11 gram of weight (approximately a 3% of their body weight), whereas animals of the group treated with enantiomer [−]2OHOA loosed 21 grams and animals of the group treated with enantiomer [+]2OHOA only loosed 7 grams of weight. On the other hand, a higher effect of enantiomer [+]2OHOA in the reduction of triglyceride (TG) and total cholesterol (CHOt) levels was observed (FIG. 8D) At this respect, plasmatic basal levels of TG in SHR rats are of 108 mg/dl and were reduced to 56 mg/dl after 2 weeks treatment […]. On the other hand, treatment with enantiomer [+]2OHOA inducted a reduction of plasmatic TG levels to 47 mg/dl, whereas enantiomer [−]2OHOA only produced a modest reduction to 81 mg/dl. […]

[4] = system: Raf, MEK, MAP kinase (ERK1 y ERK2), Akt and EGFR; experiment: Immunoblot of phosphorylased signalling proteins; type: cell-based, human
Method: D: The state of activity (levels of phosphorylased forms) of Akt and EGFR also decreases after incubating with 250 μM of 2OHOA.

U87 cells [5] = experiment: Levels of SM in cell membranes, U87; type: cell-based, human; details: U87, 200 μM [−]2OHOA
Method: The levels of SM, cultivated in the absence (control) or presence of 200 μM of [−]2OHOA, in normal cell membranes (MRC-5 and IMR90) were measured, and also in several types of tumoral cells (see Table 2). In all cases, we detected that the membranes of tumoral cells have SM levels of about half or a third of that in normal cells (FIG. 1). We can therefore assert that SM concentration is a biomarker which indicates tumorgenesis in human cells. On the other hand, treatments with the molecules of the present invention induce an increase of SM in the tumour cells which is not naturally occurring. […] For example, the spectrophotometry determination of solution fluorescence of the SM levels is a very simple, quick and efficient analysis method (FIG. 1D). Thus, this invention has generated a method for diagnosis for detecting the described pathological processes and pathologies in which there are SM level changes, and also for monitoring the efficiency of the therapy using molecules of the present invention and others of similar activity. Based on this knowledge, this invention also includes kits for diagnosing these diseases.

SMILES: CCCCCCCC/C=C\CCCCCCC(O)C(=O)O (racemic) [2OHOA, 2-hydroxyoleic acid]
- synthesis of SM (SF767 cells; SF767, 200 μM, 24 hours): significant increase
- synthesis of SM (1321N1 cells; 1321N1, 200 μM, 24 hours): significant increase
- synthesis of SM (A549 cells; A549, 200 μM, 24 hours): significant increase
- synthesis of SM (Jurkat cells; 200 μM, 24 hours): significant increase
- synthesis of SM (MRC-5 cells; MRC5, 200 μM, 24 hours): not in non-tumoral cells
- IC50 (U87 cells [1]; Homo sapiens, U-87 MG): 81.6 µM
- IC50 (SH-SY5Y cells; Homo sapiens): 119 µM
- IC50 (HepG2 cells; Homo sapiens): 41.4 µM
- IC50 (HeLa cells; Homo sapiens): 127 µM
- IC50 (HT29 cells; Homo sapiens, HT-29): 225 µM
- Toxicity: symptoms registered ([2]; 50 mg/kg orally): No
- Toxicity: symptoms registered ([2]; 75 mg/kg orally): No
- Toxicity: symptoms registered ([2]; 100 mg/kg orally): No
- Toxicity: symptoms registered ([2]; 150 mg/kg orally): No
- Toxicity: Behaviour symptoms, percentage of animals ([2]; 200 mg/kg orally): Behaviour 16%
- Toxicity: Diarrhoea, percentage of animals ([2]; 200 mg/kg orally): Diarrhoea 16%
- Toxicity: Behaviour symptoms, percentage of animals ([2]; 400 mg/kg orally): Behaviour 16%
- Toxicity: Diarrhoea, percentage of animals ([2]; 400 mg/kg orally): Diarrhoea 32%
- Toxicity: Behaviour symptoms, percentage of animals ([2]; 600 mg/kg orally): Behaviour 50%
- Toxicity: Diarrhoea, percentage of animals ([2]; 600 mg/kg orally): Diarrhoea 50%
- side effects ([2]; 600 mg/kg, 15 days orally): important side effects
- effect on systolic arterial pressure [3]: considerable therapeutic effect but of lower amplitude
- state of activity (phosphorylased forms) of Akt and EGFR ([4]; 250 μM): decreases
- phosphorylased (active) form of Raf and MEK ([4]; 150, 200 o 250 μM): reduction in state of the (active) phosphorylased form of both proteins
- state of activity of MAP kinase (ERK1 y ERK2) ([4]; 150, 200 o 250 μM): dramatic reduction in the state of activity

SMILES: CCCCCCCC/C=C\CCCCCCC(O)C(=O)O (stereo not drawn) [[+]2OHOA] [[+]HOOC—HOCH—(CH2)6—(CH═CH—CH2)1—(CH2)6—CH3]
- IC50 (U87 cells [1]): 148 µM
- IC50 (SH-SY5Y cells): 193 µM
- IC50 (HepG2 cells): 76.7 µM
- IC50 (HeLa cells): 206 µM
- IC50 (HT29 cells): 342 µM
- Toxicity: symptoms registered ([2]; 50 mg/kg orally): No
- Toxicity: symptoms registered ([2]; 75 mg/kg orally): No
- Toxicity: symptoms registered ([2]; 100 mg/kg orally): No
- Toxicity: symptoms registered ([2]; 150 mg/kg orally): No
- Toxicity: Behaviour symptoms, percentage of animals ([2]; 200 mg/kg orally): Behaviour 16%
- Toxicity: Diarrhoea, percentage of animals ([2]; 200 mg/kg orally): Diarrhoea 16%
- Toxicity: Behaviour symptoms, percentage of animals ([2]; 400 mg/kg orally): Behaviour 32%
- Toxicity: Diarrhoea, percentage of animals ([2]; 400 mg/kg orally): Diarrhoea 16%
- Toxicity: Behaviour symptoms, percentage of animals ([2]; 600 mg/kg orally): Behaviour 50%
- Toxicity: Diarrhoea, percentage of animals ([2]; 600 mg/kg orally): Diarrhoea 66%
- effect on systolic arterial pressure [3]: considerable therapeutic effect but of lower amplitude

SMILES: CCCCCCCC/C=C\CCCCCCC(O)C(=O)O (stereo not drawn) [[−]2OHOA] [[−] HOOC—HOCH—(CH2)6—(CH═CH—CH2)1—(CH2)6—CH3]
- % SM after treatment (SF767 cells; SF767, 200 μM [−]2OHOA): 24%
- % SM after treatment (U87 cells [5]): 21%
- % SM after treatment (1321N1 cells; 1321N1, 200 μM [−]2OHOA): 27%
- % SM after treatment (A549 cells; A549, 200 μM [−]2OHOA): 33%
- % SM after treatment (Jurkat cells; 200 μM [−]2OHOA): 27%
- % SM after treatment (MRC-5 cells; MRC-5 non-tumoral fibroblast, 200 μM [−]2OHOA): 24%
- Effect (anti-proliferation effect) (U87 cells [1]; U87): +
- IC50 (U87 cells [1]): 53.5 µM
- IC50 (SH-SY5Y cells): 64.4 µM
- Effect (anti-proliferation effect) (SH-SY5Y cells; SH-SYSY): +
- Effect (anti-proliferation effect) (HepG2 cells; HepG2): +
- IC50 (HepG2 cells): 32.9 µM
- Effect (anti-proliferation effect) (HeLa cells): +
- IC50 (HeLa cells): 74.5 µM
- Effect (anti-proliferation effect) (HT29 cells; HT29): +
- IC50 (HT29 cells): 159 µM
- Toxicity: symptoms registered ([2]; 50 mg/kg orally): no side effects and No
- Toxicity: symptoms registered ([2]; 75 mg/kg orally): No
- Toxicity: symptoms registered ([2]; 100 mg/kg orally): No
- Toxicity: symptoms registered ([2]; 150 mg/kg orally): No
- Toxicity: symptoms registered ([2]; 200 mg/kg orally): No
- Toxicity: Behaviour symptoms, percentage of animals ([2]; 400 mg/kg orally): Behaviour 16%
- Toxicity: Diarrhoea, percentage of animals ([2]; 400 mg/kg orally): Diarrhoea 16%
- Toxicity: Behaviour symptoms, percentage of animals ([2]; 600 mg/kg orally): Behaviour 50%
- Toxicity: Diarrhoea, percentage of animals ([2]; 600 mg/kg orally): Diarrhoea 32%
